Values joined by “and” are separate entries in the source; they are usually repeats but may differ in a detail not shown here. Equal values may be shown once. “Also recorded” adds a separate entry of the source. Where a name gives a salt, the structure may show the parent alone.
Tests used:
[1] = tested on: non-resistant (ABCG2 non-expressing) parental tumor cells; experiment: Topotecan killing of parental tumor cells; format: cell-based; details: read-out: EC50 parental cells
[2] = tested on: drug resistant (ABCG2 expressing) tumor cells; experiment: Topotecan killing of drug resistant tumor cells; format: cell-based; details: read-out: EC50 resistant cells
Igrov1/T8 derived tumors = experiment: Preliminary in vivo study, ABCG2 resistant tumors, combination with topotecan; set-up: species or system CB-17 SCID mice; details: for tumor size: intratumoral, daily, 0 to 96 hr, n = 3, p < 0.001
Ig-MXP3 cells = experiment: Direct cytotoxicity; format: cell-based
ABCG2 [3] = target: T1, ABCG2 (Homo sapiens, UniProt Q9UNQ0); experiment: JC-1 efflux inhibition dose-response, flow cytometry, Ig-MXP3 cells; format: cell-based; details: for ∼Fold G2 Selective: quotient of average ABCB1 IC50 and average ABCG2 IC50, JC-1 efflux assay
T1 sequence (Q9UNQ0 1-655): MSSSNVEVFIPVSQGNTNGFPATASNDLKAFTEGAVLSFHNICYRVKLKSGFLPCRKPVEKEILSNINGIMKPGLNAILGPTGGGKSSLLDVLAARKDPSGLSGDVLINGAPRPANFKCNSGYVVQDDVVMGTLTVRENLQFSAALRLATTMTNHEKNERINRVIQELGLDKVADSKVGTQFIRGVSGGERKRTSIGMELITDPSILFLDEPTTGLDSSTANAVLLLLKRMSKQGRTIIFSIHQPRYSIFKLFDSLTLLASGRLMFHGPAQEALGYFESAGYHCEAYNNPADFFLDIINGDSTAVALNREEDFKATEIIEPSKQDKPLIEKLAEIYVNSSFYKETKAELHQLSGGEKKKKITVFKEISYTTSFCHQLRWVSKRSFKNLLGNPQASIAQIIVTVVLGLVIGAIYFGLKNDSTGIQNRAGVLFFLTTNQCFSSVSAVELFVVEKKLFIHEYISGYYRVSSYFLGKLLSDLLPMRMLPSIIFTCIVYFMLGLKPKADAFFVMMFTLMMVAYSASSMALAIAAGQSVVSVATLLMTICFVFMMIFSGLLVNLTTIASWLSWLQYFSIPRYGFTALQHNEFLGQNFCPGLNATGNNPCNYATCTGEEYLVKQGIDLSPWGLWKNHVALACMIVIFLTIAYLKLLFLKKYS

ABCB1 [4] = target: T2, ABCB1 (Homo sapiens, UniProt P08183); experiment: JC-1 efflux inhibition dose-response, flow cytometry, Jurkat-DNR cells
ABCB1 [5] = target: T2, ABCB1; experiment: Chemoreversal secondary assay
ABCG2 [6] = target: T1, ABCG2; experiment: Chemoreversal secondary assay

T2 sequence (P08183 whole entry): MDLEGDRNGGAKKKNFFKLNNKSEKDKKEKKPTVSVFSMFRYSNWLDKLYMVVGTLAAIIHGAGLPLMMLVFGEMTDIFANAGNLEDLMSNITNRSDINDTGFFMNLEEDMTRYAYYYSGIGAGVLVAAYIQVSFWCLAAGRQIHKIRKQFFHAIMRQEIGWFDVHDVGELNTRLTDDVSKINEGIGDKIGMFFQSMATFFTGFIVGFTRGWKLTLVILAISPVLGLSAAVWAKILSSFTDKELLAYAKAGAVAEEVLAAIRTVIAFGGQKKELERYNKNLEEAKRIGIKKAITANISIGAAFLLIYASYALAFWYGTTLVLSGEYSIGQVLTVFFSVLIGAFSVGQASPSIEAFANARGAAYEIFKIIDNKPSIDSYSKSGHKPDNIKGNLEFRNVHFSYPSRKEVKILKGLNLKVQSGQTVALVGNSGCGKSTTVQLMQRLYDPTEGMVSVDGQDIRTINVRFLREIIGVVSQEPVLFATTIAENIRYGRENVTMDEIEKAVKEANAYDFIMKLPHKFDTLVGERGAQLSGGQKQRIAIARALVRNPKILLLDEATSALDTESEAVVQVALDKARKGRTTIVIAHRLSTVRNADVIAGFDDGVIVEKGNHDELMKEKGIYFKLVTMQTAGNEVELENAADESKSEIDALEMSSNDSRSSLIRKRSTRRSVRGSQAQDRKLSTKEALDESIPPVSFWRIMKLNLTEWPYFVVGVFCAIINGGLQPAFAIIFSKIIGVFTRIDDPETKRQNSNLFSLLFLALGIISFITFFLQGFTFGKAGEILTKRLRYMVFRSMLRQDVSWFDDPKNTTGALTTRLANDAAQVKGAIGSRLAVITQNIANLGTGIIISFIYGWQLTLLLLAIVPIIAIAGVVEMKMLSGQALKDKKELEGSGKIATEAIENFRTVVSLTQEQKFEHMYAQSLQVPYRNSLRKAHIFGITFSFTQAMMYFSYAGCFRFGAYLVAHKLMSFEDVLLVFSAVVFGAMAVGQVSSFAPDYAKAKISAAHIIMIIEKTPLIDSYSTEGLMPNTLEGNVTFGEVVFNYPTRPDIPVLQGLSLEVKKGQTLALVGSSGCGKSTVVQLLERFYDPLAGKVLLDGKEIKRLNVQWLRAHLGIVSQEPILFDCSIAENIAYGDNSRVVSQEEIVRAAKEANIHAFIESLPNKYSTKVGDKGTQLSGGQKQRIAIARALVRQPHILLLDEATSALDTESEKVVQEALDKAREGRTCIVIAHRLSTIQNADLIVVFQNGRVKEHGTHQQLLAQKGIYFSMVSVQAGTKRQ

Row | SMILES | ABCB1 TD50 (Jurkat-DNR cells) [µM] | ABCG2 TD50 (Ig-MXP3 cells) [µM] | ∼Fold G2 Selective (ABCG2 [3]) | further results
1 | CC[C@@]1(O)C(=O)OCc2c1cc1n(c2=O)Cc2cc3c(CN(C)C)c(O)ccc3nc2-1 [TPT, topotecan hydrochloride hydrate] |  |  |  | EC50 [1]: 0.007 µM; EC50 [2]: 0.311 µM; growth of tumors (Igrov1/T8 derived tumors; 150 nM TPT alone, intratumoral (data not shown)): did not affect the growth of tumors
2 | O=C(c1ccoc1)N1CCN(c2cc(-c3ccncc3)nc3cc(-c4cccc(Cl)c4)nn23)CC1 [Compound 31] | 13.50 | 57.80 | 2.5 fold | 
3 | COc1ccccc1-c1cc(N2CCN(C(=O)c3ccoc3)CC2)n2nc(-c3ccccc3)cc2n1 [Compound 44] | 3.73 | 7.62 | 1.2 fold | 
4 | Cc1nc2cc(-c3cccc(F)c3)nn2c(N2CCN(C(=O)c3ccco3)CC2)c1C [Compound 7] |  |  |  | tumor size (Igrov1/T8 derived tumors; 500 nM of 7 with 150 nM TPT): dramatically reduced tumor size; also recorded: Significant tumor reduction
5 | O=C(Cc1ccccc1)N1CCN(c2cc(-c3ccccc3)nc3cc(-c4cccc(Cl)c4)nn23)CC1 [Compound 24] | 17.80 | >100 | 0.8 fold | 
6 | COc1ccc(-c2cc3nc(-c4ccccc4)cc(N4CCN(C(=O)c5ccoc5)CC4)n3n2)cc1 [Compound 36] | 5.54 | >100 | 1.2 fold | 
7 | O=C(c1ccco1)N1CCN(c2cc(-c3ccccc3)nc3cc(-c4cccc(Cl)c4)nn23)CC1 [Compound 8] | 6.77 | 6.00 | 6.4 fold | 
8 | O=C(c1ccoc1)N1CCN(c2cc(-c3ccco3)nc3cc(-c4ccccc4)nn23)CC1 [Compound 1] | 5.52 | 18.30 | 36 fold and 35.8 fold | higher potency in ABCG2 than Ko143 (ABCG2 [3]; JC-1 efflux reporter system): approximately 100 fold; EC50 (ABCG2 [3]; read-out: ABCG2 EC50, efflux assay, as worded): 0.13 µM; tumor size (Igrov1/T8 derived tumors; 100 nM of 1 with 150 nM TPT): dramatically reduced tumor size; also recorded: Significant tumor reduction; EC50 (ABCB1 [4]; read-out: ABCB1 EC50, efflux assay, as worded): 4.65 µM
9 | COc1ccccc1-c1cc2nc(-c3ccccc3)cc(N3CCN(C(=O)c4ccoc4)CC3)n2n1 [Compound 34] | 4.37 | 6.50 | 4.8 fold | 
10 | COc1cccc(C(=O)N2CCN(c3cc(-c4ccccc4)nc4cc(-c5cccc(Cl)c5)nn34)CC2)c1 [Compound 15] | >100 | >100 | 0.6 fold | 
11 | O=C(c1cccnc1)N1CCN(c2cc(-c3ccccc3)nc3cc(-c4cccc(Cl)c4)nn23)CC1 [Compound 20] | 4.72 | 10.30 | 2.5 fold | 
12 | CN(C)C(=O)CCSC(SCCC(=O)O)c1cccc(/C=C/c2ccc3ccc(Cl)cc3n2)c1 (stereo not drawn) [Compound 5, MK571, reference compound] |  |  |  | EC50 (ABCB1 [5]): 20.4 µM; EC50 (ABCG2 [6]): 57.4 µM; IC50 (ABCG2 [3]): > 50 µM; IC50 (ABCB1 [4]): > 50 µM
13 | O=C(c1ccncc1)N1CCN(c2cc(-c3ccccc3)nc3cc(-c4cccc(Cl)c4)nn23)CC1 [Compound 21] | 10.90 | 28.30 | 1.1 fold | 
14 | Cc1nc2cc(-c3cccc(Cl)c3)nn2c(N2CCN(C(=O)c3ccco3)CC2)c1C [Compound 9] | >100 | 47.40 | 3.2 fold | 

— paper PMC3623016 (Journal of biomolecular screening, 2012)
